From US8080664B2, “Use of compounds as inhibitors for Helicobacter flavodoxin” (Universidad De Zaragoza, priority 2007, dated 2011)

What was measured:
H. pylori flavodoxin = target: T1, H. pylori flavodoxin (Helicobacter pylori, UniProt O25776); experiment: Inhibition assay of sequential electron transfer pyruvate/PFOR/flavodoxin/FqrB/NADP+ (NADPH formation at 340 nm); type: biochemical; conditions: 50 μM compound; anaerobic; 10 μM Fld; absorbance at 340 nm
T1 construct: made in house; host or cells: E. coli BL21 (flavodoxin, pET28a); E. coli JVQ2 (PFOR); E. coli BL21(DE3) (FqrB)
T1 sequence (O25776 1-164): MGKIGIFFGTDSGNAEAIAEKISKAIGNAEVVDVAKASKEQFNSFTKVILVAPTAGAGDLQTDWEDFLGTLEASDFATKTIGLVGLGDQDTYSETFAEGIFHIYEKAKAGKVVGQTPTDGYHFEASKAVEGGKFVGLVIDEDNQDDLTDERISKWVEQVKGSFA
Source text: Flavodoxin is an essential protein for Helicobacter pylori survival as it participates in a fundamental reaction for obtaining energy from the oxidative decarboxylation of pyruvate. In this reaction, flavodoxin transfers electrons between the PFOR enzyme and the FqrB enzyme, which releases them to NADP^+.
The sequential reaction of electron transfer between pyruvate, PFOR, flavodoxin, FqrB and NADP^+ (activity assay) was followed spectroscopically by the appearance of the signal at 340 nm with the formation of NADPH. The reaction mixture contained 100 mM potassium phosphate pH 7, 10 mM pyruvate, 0.18 mM CoA, 1 mM MgCl, 0.3 mM NADP^+, 0.09 mg/ml PFOR, 10 μM Fld and 0.15 μM FqrB. The mixture, except CoA, was placed in a cuvette specially designed for anaerobic conditions. Oxygen was removed by means of 5 minute cycles with alternate flows of vacuum and argon. The reaction was started by the addition of 0.18 mM coenzyme A (CoA) that was held in a compartment inside the same cuvette. The reaction finished 15 minutes after adding the CoA reagent.
The inhibition assays were carried out in the same conditions as the activity assays previously described, adding an additional 50 μM of the disclosed compound of the general formula shown in (II) to the reaction cuvette.

flavodoxin of H. pylori = target: T2, flavodoxin of H. pylori (Helicobacter pylori, UniProt O25776); experiment: Isothermal titration calorimetry (ITC) binding to flavodoxin; conditions: 50 mM EPPS buffer, pH 9, 7% DMSO; protein around 20 μM; read-out: affinity for flavodoxin (ITC)
T2 construct: made in house; host or cells: E. coli BL21 (pET28a)
Method: The specific binding of the inhibitors of the disclosed compounds to flavodoxin of H. pylori was confirmed by isothermal titration calorimetry (ITC). This technique not only measures the affinity of each compound for the target protein, but also determines the contribution of the enthalpic and entropic components of binding.
The binding experiments were carried out in 50 mM EPPS buffer, pH 9 with 7% DMSO, with the inhibitor in the injection syringe at a concentration of 300-500 μM, and the protein around 20 μM in the measurement cell.

## O=[N+]([O-])C1=Cc2cc(Cl)cc(Cl)c2OC1c1ccc(F)cc1 (centres unmarked) [formula (II)]
H. pylori flavodoxin
  inhibition of NADPH formation (pyruvate oxidative decarboxylation reaction): almost total
Flavodoxin of H. pylori
  Kd: 1600 nM
